Assay results: US10500207B2, “Compounds for the treatment of diseases associated with amyloid or amyloid-like proteins” (AC Immune SA, priority 2010, dated 2019)

target: Aβ1-42 peptide (Homo sapiens, UniProt P05067); test: Thioflavin T spectrofluorescence assay (ThT-assay): inhibition of Aβ1-42 aggregation (% inhibition at 330 μM; IC50 from dilution series); conditions: 24 h, read-out: Inhibition at 330 μM [%], ThT assay; 330 μM small molecule, 33 μM Aβ1-42 (10:1), 24 hrs at 37° C.; mean ± standard deviation of two independent experiments
Sequence (P05067 672-713 limits assumed): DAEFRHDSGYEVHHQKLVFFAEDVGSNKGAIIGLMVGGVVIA
Description: Aβ1-42 lyophilized powder (Bachem) was reconstituted in hexafluoroisopropanol (HFIP) to 1 mM. The peptide solution was sonicated for 15 min at room temperature, agitated overnight, and aliquots were made into non-siliconized microcentrifuge tubes. The HFIP was then evaporated under a stream of argon. The resulting peptide film was dried under vacuum for 10 min, tightly sealed and stored at −80° C. until used.
A positive control without a small molecule was prepared to measure maximum RFU. A negative control without Aβ1-42 was prepared for each small molecule. […] The solutions were then incubated for 24 hrs at 37° C., and the spectrofluorescence (relative fluorescence units; RFU) were read in six replicates in black 384-well assay plates (Perkin-Elmer) on a Perkin-Elmer FluoroCount spectrofluorometer. The inhibition of aggregation is expressed as mean % inhibition±1 standard deviation (SD) according to the following equation:
Racemic compounds and their enantiomers were tested for their ability to inhibit amyloid peptide aggregation using the ThT assay. To determine the IC50, the following dilutions of the compounds were used in the ThT assay described above:

First: CN1CCC(c2c[nH]c3cc(Nc4ccc5c(c4)OCC(=O)N5)ccc23)CC1 [Example 87]
Second: CN1CCC(c2c[nH]c3cc(Nc4ccc5c(c4)OCO5)ccc23)CC1 [Example 153]
The inhibition at 330 µM of the first is lower: 80.8 ± 0.5% for the first, 91.3 ± 4.2% for the second.

c1cc(Nc2ccc3c(C4CCNCC4)c[nH]c3c2)cc(N2CCOCC2)c1 [Example 62] and c1cc(N2CCOCC2)ccc1Nc1ccc2c(C3CCNCC3)c[nH]c2c1 [Example 73] are within error of each other in inhibition at 330 µM: 99.7 ± 0.3% for the first, 99.2 ± 0.3% for the second.

Going from CNC1CCc2c(c3ccc(Nc4cc(F)c(F)cc4F)nc3n2C)C1 (centres unmarked) [Example 28] to CNC1CCc2[nH]c3nc(Nc4cc(F)c(F)cc4F)ccc3c2C1 (centres unmarked) [Example 27], the inhibition at 330 µM falls from 91.4 ± 2.9% to 86.7 ± 0.8%.

c1ccc(CCNc2ccc3cc[nH]c3n2)nc1 [Example 1] and c1ccc(Nc2ccc3cc[nH]c3n2)nc1 [Example 9] are within error of each other in inhibition at 330 µM: 69.5 ± 4.5% for the first, 70.8 ± 9.2% for the second.

First: CN1CCC(c2c[nH]c3ccc(Nc4ccc(F)c(F)c4)cc23)CC1 [Example 21]
Second: CN1CCC(c2c[nH]c3cc(Nc4ccc(F)c(F)c4)ccc23)CC1 [Example 22]
The inhibition at 330 µM of the first is lower: 74 ± 2.7% for the first, 84.5 ± 6.8% for the second.

CNC1CCc2c(c3ccc(Nc4ccc(OC)c(OC)c4)nc3n2C)C1 (centres unmarked) [Example 95] and CNC1CCc2c(c3ccc(Nc4ccc(F)c(OC)c4)nc3n2C)C1 (centres unmarked) [Example 115] are within error of each other in inhibition at 330 µM: 89.9 ± 6.1% for the first, 94 ± 0.8% for the second.

First: CN1CCN(C(=O)c2ccc(Nc3ccc(F)cc3)cc2)CC1 [Example 189]
Second: CN1CCN(c2ccc(Nc3ccc4c(c3)c3c(n4C)CCS(=O)(=O)C3)cc2)CC1 [Example 182]
The inhibition at 330 µM of the first is lower: 12.6 ± 5.5% for the first, 66.1 ± 6.9% for the second.

CNC1CCc2[nH]c3ccc(Nc4ccc5c(C6CCNCC6)cn(C)c5c4)cc3c2C1 (centres unmarked) [Example 108] and Cn1cc(C2CCNCC2)c2ccc(Nc3ccc4ocnc4c3)cc21 [Example 111] are within error of each other in inhibition at 330 µM: 98.9 ± 0.5% for the first, 99.5 ± 0.1% for the second.

Going from COC1CCc2c(c3ccc(Nc4ccc(F)cc4)cc3n2C)C1 (centres unmarked) [Example 191] to COc1cc(Nc2ccc3c4c(n(C)c3c2)CCC(OC)C4)ccc1F (centres unmarked) [Example 124], the inhibition at 330 µM falls from 89.7 ± 1.4% to 79.1 ± 3.8%.

First: c1cc2ncc(Nc3ccc4cc[nH]c4n3)cc2[nH]1 [Example 13]
Second: c1cc2ccc(Nc3ccc4cc[nH]c4n3)cc2[nH]1 [Example 12]
The inhibition at 330 µM of the first is higher: 97.8 ± 1.8% for the first, 75.3 ± 14.5% for the second.

COC1CCc2c(c3cc(Nc4ccc5c(c4)OCO5)ccc3n2C)C1 (centres unmarked) [Example 125] and COC1CCc2c(c3cc(Nc4ccc5c(c4)OCCO5)ccc3n2C)C1 (centres unmarked) [Example 126] are within error of each other in inhibition at 330 µM: 84.2 ± 5.8% for the first, 82.2 ± 2.2% for the second.

Going from Cn1c2c(c3cc(Nc4ccc(N5CCOCC5)cc4)ccc31)CS(=O)(=O)CC2 [Example 184] to CN(C)C1CCc2[nH]c3ccc(Nc4ccc(N5CCOCC5)cc4)cc3c2C1 (centres unmarked) [Example 76], the inhibition at 330 µM rises from 41.3 ± 1.1% to 96.9 ± 2.3%.

First: c1cc2ccc(Nc3ccc4cc[nH]c4n3)nc2[nH]1 [Example 8]
Second: Fc1ccc(Nc2ccc3cc[nH]c3n2)cc1 [Example 10]
The inhibition at 330 µM of the first is higher: 74.7 ± 6.8% for the first, 62.7 ± 4% for the second.

Cn1cc(C2CCNCC2)c2ccc(Nc3ccc4c(c3)OCO4)nc21 [Example 66] and Cn1cc(C2CCNCC2)c2ccc(Nc3ccc4c(c3)OCO4)cc21 [Example 145] are within error of each other in inhibition at 330 µM: 85.1 ± 0.8% for the first, 88.3 ± 4.9% for the second.

Cn1c2c(c3ccc(Nc4ccc5c(c4)OCCO5)nc31)CC(OCCF)CC2 (centres unmarked) [Example 130] and COC1CCc2c(c3ccc(Nc4ccc5c(c4)OCCO5)nc3n2C)C1 (centres unmarked) [Example 198] are within error of each other in inhibition at 330 µM: 91.6 ± 0.2% for the first, 92.1 ± 0.3% for the second.

c1nc2[nH]cc(C3CCNCC3)c2cc1Nc1ccc2c3c([nH]c2n1)CCCC3 [Example 45] and c1cc2c(C3CCNCC3)c[nH]c2nc1Nc1ccc2c3c([nH]c2n1)CCCC3 [Example 44] are within error of each other in inhibition at 330 µM: 96.5 ± 3.7% for the first, 98.1 ± 0.3% for the second.

CN1CCC(c2c[nH]c3cc(Nc4cc(F)c(F)cc4F)ccc23)CC1 [Example 79] and CN1CCC(c2c[nH]c3cc(Nc4cc(F)c(F)c(F)c4)ccc23)CC1 [Example 113] are within error of each other in inhibition at 330 µM: 91 ± 4.2% for the first, 90.5 ± 0.5% for the second.

Going from CNC1CCc2[nH]c3ccc(NC4CCN(C)CC4)cc3c2C1 (centres unmarked) [Example 109] to CNC1CCc2[nH]c3ccc(Nc4ccc(OC)c(F)c4)cc3c2C1 (centres unmarked) [Example 107], the inhibition at 330 µM rises from 63.6 ± 2% to 86.8 ± 1.9%.

CNC1CCc2c(c3ccc(Nc4ccc5c(C6CCN(C)CC6)c[nH]c5c4)nc3n2C)C1 (centres unmarked) [Example 117] and CN1CCC(c2c[nH]c3cc(Nc4ccc5c(C6CCN(C)CC6)cn(C)c5n4)ccc23)CC1 [Example 196] are within error of each other in inhibition at 330 µM: 90.7 ± 7.9% for the first, 80 ± 4.6% for the second.

Compared with CNC1CCc2c(c3ccc(Nc4ccc5ncn(C)c5c4)nc3n2C)C1 (centres unmarked) [Example 159], Cn1cnc2ccc(Nc3ccc4c5c(n(C)c4n3)CCCC5)cc21 [Example 172] is lower in inhibition at 330 µM: 91.9 ± 1.6% for the first, 68.3 ± 0.8% for the second.

Going from CNC1CCc2c(c3ccc(Nc4ccc5c(c4)NC(=O)CO5)nc3n2C)C1 (centres unmarked) [Example 86] to CNC1CCc2c(c3ccc(Nc4ccc5c(c4)OCCCO5)nc3n2C)C1 (centres unmarked) [Example 84], the inhibition at 330 µM falls from 96.6 ± 0.7% to 91.7 ± 0.2%.

Going from COC1CCc2c(c3ccc(Nc4ccc(F)c(F)c4)nc3n2C)C1 (centres unmarked) [Example 204] to COCCOC1CCc2c(c3ccc(Nc4ccc(F)c(F)c4)nc3n2C)C1 (centres unmarked) [Example 136], the inhibition at 330 µM falls from 93.5 ± 0.4% to 88 ± 1.4%.

Compared with CNC1CCc2c(c3ccc(Nc4ccc(N5CCOCC5)cc4)nc3n2C)C1 (racemic) [Example 42], COC1CCc2c(c3ccc(Nc4ccc(N5CCOCC5)cc4)nc3n2C)C1 (centres unmarked) [Example 193] is lower in inhibition at 330 µM: 96.2 ± 2.8% for the first, 54.3 ± 3.4% for the second.

Compared with CNC1CCc2[nH]c3nc(Nc4ccc(C(F)(F)F)nc4)ccc3c2C1 (centres unmarked) [Example 25], Cn1c2c(c3cc(Nc4ccc(C(F)(F)F)nc4)ccc31)CS(=O)(=O)CC2 [Example 179] is lower in inhibition at 330 µM: 63.4 ± 9% for the first, 30.2 ± 0.9% for the second.

CN1CCC(c2c[nH]c3ccc(Nc4ccc5c(C6CCNCC6)c[nH]c5c4)cc23)CC1 [Example 64] and c1cc2c(cc1Nc1ccc3c(C4CCNCC4)c[nH]c3c1)CCC2 [Example 65] are within error of each other in inhibition at 330 µM: 95.4 ± 0.3% for the first, 95.9 ± 1.3% for the second.

Compared with CNC1CCc2c(c3ccc(Nc4cccc(N5CCOCC5)c4)nc3n2C)C1 (centres unmarked) [Example 82], CNC1CCc2c(c3ccc(Nc4cccc(N5CCN(C)CC5)c4)nc3n2C)C1 (centres unmarked) [Example 80] is lower in inhibition at 330 µM: 96.6 ± 2% for the first, 83.3 ± 0.1% for the second.

COc1ccc(Nc2ccc3c(C4CCN(C)CC4)cn(C)c3c2)cc1OC [Example 104] and COc1ccc(Nc2ccc3c(C4CCN(C)CC4)cn(C)c3n2)cc1F [Example 105] are within error of each other in inhibition at 330 µM: 89.3 ± 10.6% for the first, 96.7 ± 0.7% for the second.

CN1CCC(c2cn(C)c3nc(Nc4ccc5c(c4)OCCO5)ccc23)CC1 [Example 150] and CN1CCC(c2cn(C)c3nc(Nc4ccc5c(c4)CN(C)CC5)ccc23)CC1 [Example 152] are within error of each other in inhibition at 330 µM: 83.9 ± 1.5% for the first, 80.8 ± 3.6% for the second.

c1cc2c(C3CCNCC3)c[nH]c2nc1NCC1CCNCC1 [Example 50] and CC(=O)Nc1cccc(Nc2ccc3c(C4CCNCC4)c[nH]c3n2)c1 [Example 143] are within error of each other in inhibition at 330 µM: 67.5 ± 0.1% for the first, 64.8 ± 3.7% for the second.

Going from Fc1ccc(Nc2ccc3c(c2)OCO3)cc1F [Example 186] to CN1CCc2c(c3cc(Nc4ccc(F)c(F)c4)ccc3n2C)C1 [Example 206], the inhibition at 330 µM rises from 66.5 ± 2.4% to 94.5 ± 0.7%.

CN1CCN(c2ccc(Nc3ccc4[nH]c5c(c4c3)CC(N(C)C)CC5)cc2)CC1 (centres unmarked) [Example 77] and CN1CCC(c2c[nH]c3cc(Nc4ccc(N5CCOCC5)cc4)ccc23)CC1 [Example 162] are within error of each other in inhibition at 330 µM: 98 ± 0.6% for the first, 94.5 ± 3.1% for the second.

Going from CN1CCC(c2cn(C)c3cc(Nc4cccc(N5CCOCC5)c4)ccc23)CC1 [Example 75] to CN1CCC(c2c[nH]c3cc(Nc4cccc(N5CCOCC5)c4)ccc23)CC1 [Example 20], the inhibition at 330 µM falls from 97.1 ± 2% to 92.8 ± 0.1%.

Compared with Cn1c2c(c3cc(Nc4ccc(F)c(F)c4)ccc31)CN(CCCCS(C)(=O)=O)CC2 [Example 208], Cn1cnc2ccc(Nc3ccc4c(c3)c3c(n4C)CCS(=O)(=O)C3)cc21 [Example 181] is lower in inhibition at 330 µM: 85 ± 3.3% for the first, 6.6 ± 4.3% for the second.

Cn1c2c(c3ccc(Nc4ccc5c(c4)OCC(=O)N5)nc31)CCCC2 [Example 167] and Cn1c2c(c3ccc(Nc4ccc5c(c4)OCO5)nc31)CCCC2 [Example 169] are within error of each other in inhibition at 330 µM: 88.9 ± 2.6% for the first, 92.4 ± 4% for the second.

Going from CNC1CCc2c(c3ccc(Nc4ccc(OC)c(OC)c4)cc3n2C)C1 (centres unmarked) [Example 133] to CNC1CCc2[nH]c3ccc(Nc4ccc(OC)c(OC)c4)cc3c2C1 (centres unmarked) [Example 106], the inhibition at 330 µM falls from 99.2 ± 0.3% to 86.4 ± 3.8%.

Going from Cn1cc(C2CCNCC2)c2cc(Nc3ccc(F)c(F)c3)ccc21 [Example 57] to Fc1ccc(Nc2ccc3[nH]cc(C4CCNCC4)c3c2)cc1F [Example 55], the inhibition at 330 µM falls from 85.1 ± 3.2% to 75.8 ± 0.8%.

Compared with COC1CCc2[nH]c3cc(Nc4ccc5c(c4)OCCO5)ccc3c2C1 (centres unmarked) [Example 127], COc1ccc(Nc2ccc3[nH]cc(C4CCN(C)CC4)c3c2)cc1F [Example 101] is lower in inhibition at 330 µM: 91.5 ± 2.5% for the first, 70.2 ± 9.8% for the second.

Going from c1ccc2c(c1)CCN(c1ccc3c(C4CCNCC4)c[nH]c3c1)C2 [Example 72] to c1cc2cc(Nc3ccc4cc[nH]c4c3)ccc2[nH]1 [Example 16], the inhibition at 330 µM falls from 97.9 ± 0.5% to 93.7 ± 2.1%.

same assay, conditions: IC50 μM 1st assay, ThT assay, dilution series 330 μM to 0.08 μM; 1st assay

Going from CNC1CCc2c(c3ccc(Nc4ccc(F)c(F)c4)nc3n2C)C1 (single isomer, unassigned) [Example 214b] to CNC1CCc2c(c3ccc(Nc4ccc5c(c4)OCCO5)nc3n2C)C1 (single isomer, unassigned) [Example 217b], the IC50 falls from 13.4 µM to 6.6 µM (2-fold). The second is the more potent here.

CNC1CCc2c(c3ccc(Nc4ccc(N5CCOCC5)cc4)nc3n2C)C1 (racemic) [Example 42] was tested, and the IC50 was 63 µM.
Work on CNC1CCc2c(c3ccc(Nc4ccc(N5CCOCC5)cc4)nc3n2C)C1 (single isomer, unassigned) [Example 216b] yielded an IC50 of 45 µM.

same assay, conditions: IC50 μM 2nd assay, ThT assay, dilution series 330 μM to 0.08 μM; 2nd assay

CNC1CCc2c(c3ccc(Nc4ccc(F)c(F)c4)nc3n2C)C1 (single isomer, unassigned) [Example 214b] and CNC1CCc2c(c3ccc(Nc4ccc5c(c4)OCCO5)nc3n2C)C1 (single isomer, unassigned) [Example 217b] are within 1.5-fold of each other in IC50: 7.7 µM for the first, 5.9 µM for the second.

Compound CNC1CCc2c(c3ccc(Nc4ccc(N5CCOCC5)cc4)nc3n2C)C1 (racemic) [Example 42] has an IC50 of 112 µM.
Compound CNC1CCc2c(c3ccc(Nc4ccc(N5CCOCC5)cc4)nc3n2C)C1 (single isomer, unassigned) [Example 216b] has an IC50 of 34.5 µM.

same assay, conditions: ThT assay; 330 μM small molecule, 33 μM Aβ1-42 (10:1), 24 hrs at 37° C.; mean ± standard deviation of two independent experiments

With CN(C)C(=O)c1ccc(Nc2ccc3cc[nH]c3n2)cc1 [Example 5] the “Inhibition at 330 μM [%]” value was “no inhibition”.
With CN(C)C(=O)c1cccc(Nc2ccc3cc[nH]c3n2)c1 [Example 7] the “Inhibition at 330 μM [%]” value was “no inhibition”.
